# Experimental data from ChEMBL document CHEMBL4312036, “Antiproliferative activity and mode of action analysis of novel amino and amido substituted phenantrene and naphtho[2,1-b]thiophene derivatives” (Eur J Med Chem, 2020).
# Active and inactive are the calls of the source. No cut-off for these calls is given here.
# Key:
# HFF = experiment: Cytotoxicity against HFF cells assessed as reduction in cell viability incubated for 72 hrs by MTT assay; assay type: cell-based; details: Homo sapiens
# SW-620 = experiment: Antiproliferative activity against human SW620 cells incubated for 72 hrs by MTT assay; assay type: functional, cell-based; details: SW-620, 72 h
# HepG2 [1] = experiment: cells; details: Homo sapiens, HepG2, 72 h
# Description: Antiproliferative activity against human HepG2 cells incubated for 72 hrs by MTT assay
# HeLa [2] = experiment: cells; details: Homo sapiens, 72 h
# Description: Antiproliferative activity against human HeLa cells incubated for 72 hrs by MTT assay
# CFPAC-1 = experiment: Antiproliferative activity against human CFPAC-1 cells incubated for 72 hrs by MTT assay; assay type: functional, cell-based; details: CFPAC-1, 72 h
# A549 = experiment: Antiproliferative activity against human A549 cells incubated for 72 hrs by MTT assay; assay type: functional, cell-based; details: A549, 72 h
# HepG2 [3] = experiment: Upregulation of HIF1 protein level in human HepG2 cells at 2 times IC50 incubated for 72 hrs by Western blot analysis; assay type: functional, cell-based
# HeLa [4] = experiment: Upregulation of HIF1 protein level in human HeLa cells at 2 times IC50 incubated for 48 hrs by Western blot analysis; assay type: functional, cell-based
# HeLa [5] = experiment: Downregulation of MEK1/2 protein level in human HeLa cells at 2 times IC50 incubated for 72 hrs by Western blot analysis; assay type: functional, cell-based
# HepG2 [6] = experiment: Downregulation of MEK1/2 protein level in human HepG2 cells at 2 times IC50 incubated for 72 hrs by Western blot analysis; assay type: functional, cell-based
# HeLa [7] = experiment: Upregulation of HIF1 protein level in human HeLa cells at 2 times IC50 incubated for 72 hrs by Western blot analysis; assay type: functional, cell-based
# HeLa [8] = experiment: Downregulation of MEK1/2 protein level in human HeLa cells at 2 times IC50 incubated for 48 hrs by Western blot analysis; assay type: functional, cell-based
Compound,IC50 (SW-620) [µM],IC50 (HepG2 [1]) [µM],IC50 (HeLa [2]) [µM],IC50 (A549) [µM],IC50 (HFF) [µM],IC50 (CFPAC-1) [µM],Activity (HepG2 [3]),Activity (HeLa [4]),Activity (HeLa [5]),Activity (HepG2 [6]),Activity (HeLa [7]),Activity (HeLa [8])
CC(C)CNC(=O)c1cc2ccccc2c2ccsc12,> 100,75.4,39.6,63.9,96.8,97.5,,,,,,
CC(C)CNC(=O)c1ccc2cc(C(=O)NCC(C)C)c3sccc3c2c1,0.9,86.1,10.8,27.7,0.74,> 100,,,,,,
CN(C)CCCNC(=O)c1cc2ccccc2c2ccsc12,17.7,23.2,14.4,20.2,24,17.5,,,,,,
N#Cc1cc2ccc(N3CCCCC3)cc2c2ccccc12,> 100,81.8,59.4,58.9,> 100,> 100,,,,,,
CC(C)CNc1ccc2cc(C#N)c3ccccc3c2c1,43.4,33.6,23.6,31.1,52.9,35.5,,,,,,
N#Cc1cc2ccc(N3CCCCC3)cc2c2ccsc12,64.1,62,32.2,61.3,62,25.7,,,,,,
N#Cc1cc2ccc(N3CCNCC3)cc2c2ccsc12,2.58,20.9,2.38,7.09,37.5,3.66,,,,,,
CN(C)CCCNC(=O)c1ccc2cc(C(=O)NCCCN(C)C)c3sccc3c2c1,4.4,16.2,4.21,5.57,5.83,6.59,,,,,,
N#Cc1cc2ccc(F)cc2c2ccccc12,7.8,18.3,8.31,9.57,3.43,13.2,,,,,,
N#Cc1ccc2cc(C#N)c3sccc3c2c1,6.04,7.22,0.45,5.53,5.13,8.19,,,,,,
CC(C)CNc1ccc2cc(C#N)c3sccc3c2c1,41.5,47.6,18.6,31,98.4,18.6,,,,,,
N#Cc1cc2ccccc2c2ccsc12,70.3,54.3,29.9,50.4,84.6,55.6,,,,,,
N#Cc1ccc2cc(C#N)c3ccccc3c2c1,6.8,10.8,0.65,3.3,1.78,8.2,,,,,,
CC(C)CNC(=O)c1cc2ccccc2c2ccccc12,61.3,93.4,28.4,64.2,> 100,68.6,,,,,,
N#Cc1cc2ccc(N3CCNCC3)cc2c2ccccc12,4.62,19.4,3.33,5.49,23.8,6.19,,,,,,
N#Cc1cc2ccc(F)cc2c2ccsc12,42.4,32.1,11.6,49.9,16.4,51,,,,,,

# More lines, main results first:
IC50 (SW-620) [µM],IC50 (HepG2 [1]) [µM],IC50 (HeLa [2]) [µM],IC50 (A549) [µM],Compound,IC50 (HFF) [µM],IC50 (CFPAC-1) [µM],Activity (HepG2 [3]),Activity (HeLa [4]),Activity (HeLa [5]),Activity (HepG2 [6]),Activity (HeLa [7]),Activity (HeLa [8])
> 100,81.5,48.9,64.6,N#C/C(=C\c1ccccc1)c1ccccc1,93.7,88.2,,,,,,
61.4,0.3,0.21,47.7,N#C/C(=C\c1ccc(C#N)cc1)c1cccs1,> 100,52.4,Active,Active,Active,Active,Active,
36.4,5.22,3.59,40.8,N#C/C(=C\c1ccc(F)cc1)c1cccs1,86.9,34.2,,,,,,
> 100,48.8,30.3,72.4,N#Cc1cc2ccccc2c2ccccc12,> 100,80,,,,,,
9.18,0.52,0.33,8.39,N#C/C(=C\c1ccc(C#N)cc1)c1ccccc1,6.07,6.7,Active,Active,,Active,Active,Active
38.5,7.73,3.44,45.8,N#C/C(=C\c1ccc(F)cc1)c1ccccc1,52.7,46.9,,,,,,
> 100,43.4,20,59,N#C/C(=C\c1ccccc1)c1cccs1,84.3,97.8,,,,,,
